Measurements reported in ChEMBL document CHEMBL5126594, “Entry inhibition of hepatitis B virus using cyclosporin O derivatives with peptoid side chain incorporation” (Bioorg Med Chem, 2022).

Assays:
[1] = test system: Hepatitis B virus; assay: Antiviral activity against Hepatitis B virus infected in human HepG2 cells expressing NTCP assessed as inhibition of viral entry by measuring intracellular HBV DNA at 1 uM preincubated with compound for 2 hrs followed by viral infection and measured after 3 hrs by qPCR analysis relative to control; type: functional; details: time 5 hrs
[2] = target: CYP2D6 (Homo sapiens, UniProt P10635); assay: Inhibition of human CYP2D6 at 10 uM preincubated for 10 mins followed by NADPH addition and measured after 20 mins by luciferin reagent based luminescence analysis; type: ADME; details: time 30 min
[3] = target: T1, CYP1A2 (Homo sapiens, UniProt P05177); assay: Inhibition of human CYP1A2 at 10 uM preincubated for 10 mins followed by NADPH addition and measured after 20 mins by luciferin reagent based luminescence analysis; type: ADME; details: time 30 min
T1 sequence (P05177 whole entry): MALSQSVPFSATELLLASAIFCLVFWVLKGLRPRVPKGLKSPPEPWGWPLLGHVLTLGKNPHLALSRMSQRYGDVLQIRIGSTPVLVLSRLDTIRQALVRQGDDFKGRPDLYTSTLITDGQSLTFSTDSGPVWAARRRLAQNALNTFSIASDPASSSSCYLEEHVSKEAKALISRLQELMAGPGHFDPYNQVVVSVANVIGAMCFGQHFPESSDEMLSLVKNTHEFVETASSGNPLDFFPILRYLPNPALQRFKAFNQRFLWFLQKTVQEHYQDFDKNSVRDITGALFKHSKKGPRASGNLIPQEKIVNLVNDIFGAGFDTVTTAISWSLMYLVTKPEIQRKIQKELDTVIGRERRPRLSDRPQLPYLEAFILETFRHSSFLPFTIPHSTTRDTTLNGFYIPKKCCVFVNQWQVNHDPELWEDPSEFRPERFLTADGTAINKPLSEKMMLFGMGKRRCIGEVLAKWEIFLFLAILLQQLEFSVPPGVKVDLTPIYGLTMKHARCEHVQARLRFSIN

[4] = test system: Hepatitis B virus; assay: Antiviral activity against Hepatitis B virus infected in human HepG2 cells expressing NTCP assessed as inhibition of viral entry by measuring intracellular HBV DNA preincubated with compound for 2 hrs followed by viral infection and measured after 3 hrs by qPCR analysis; type: functional, organism-based
[5] = target: CYP2C9 (Homo sapiens, UniProt P11712); assay: Inhibition of human CYP2C9 at 10 uM preincubated for 10 mins followed by NADPH addition and measured after 20 mins by luciferin reagent based luminescence analysis; type: ADME; details: time 30 min
CYP2C9, sequence (P11712 whole entry): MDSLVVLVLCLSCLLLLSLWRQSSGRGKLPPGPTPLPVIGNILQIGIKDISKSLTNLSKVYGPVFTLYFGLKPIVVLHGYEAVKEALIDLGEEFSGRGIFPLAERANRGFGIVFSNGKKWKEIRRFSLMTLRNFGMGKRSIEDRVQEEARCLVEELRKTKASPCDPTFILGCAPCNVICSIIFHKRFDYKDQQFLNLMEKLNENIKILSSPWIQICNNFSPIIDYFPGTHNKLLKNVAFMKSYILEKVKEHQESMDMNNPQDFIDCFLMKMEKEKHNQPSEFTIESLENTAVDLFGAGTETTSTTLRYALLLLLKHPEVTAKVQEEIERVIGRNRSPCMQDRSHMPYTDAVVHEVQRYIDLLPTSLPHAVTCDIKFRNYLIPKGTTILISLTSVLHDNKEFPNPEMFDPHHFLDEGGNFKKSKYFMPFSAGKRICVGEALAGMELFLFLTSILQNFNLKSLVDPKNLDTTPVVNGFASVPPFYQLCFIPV

CYP2D6, sequence (P10635 whole entry): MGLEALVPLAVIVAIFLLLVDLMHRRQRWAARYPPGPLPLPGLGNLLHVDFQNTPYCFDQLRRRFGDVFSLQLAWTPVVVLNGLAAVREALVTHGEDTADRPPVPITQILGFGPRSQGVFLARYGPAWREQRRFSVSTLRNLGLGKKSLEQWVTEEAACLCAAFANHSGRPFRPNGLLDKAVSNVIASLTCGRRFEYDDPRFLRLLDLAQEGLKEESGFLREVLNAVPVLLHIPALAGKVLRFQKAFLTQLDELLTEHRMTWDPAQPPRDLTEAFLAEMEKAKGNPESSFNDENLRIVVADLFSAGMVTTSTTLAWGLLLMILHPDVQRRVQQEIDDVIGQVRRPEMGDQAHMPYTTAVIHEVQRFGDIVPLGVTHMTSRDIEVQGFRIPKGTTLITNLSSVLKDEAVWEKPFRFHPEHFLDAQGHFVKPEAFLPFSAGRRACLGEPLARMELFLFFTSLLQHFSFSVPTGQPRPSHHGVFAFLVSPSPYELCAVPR

| Structure (SMILES) | inhibition at 1 µM [1] [%] | also measured |
| --- | --- | --- |
| CCC[C@@H]1NC(=O)[C@H](CC(C)C)N(C)C(=O)[C@H](CC(C)C)N(C)C(=O)CN(CCOC)C(=O)[C@H](CC(C)C)N(C)C(=O)[C@@H](C)NC(=O)[C@@H](CCC(N)=O)NC(=O)[C@H](CC(C)C)N(C)C(=O)[C@H](C(C)C)NC(=O)[C@H](CC(C)C)N(C)C(=O)CN(C)C1=O | 52 | – |
| CCC[C@@H]1NC(=O)[C@H](CC(C)C)N(C)C(=O)[C@H](CC(C)C)N(C)C(=O)[C@H](CC(C)C)N(C)C(=O)[C@H](CC(C)C)N(C)C(=O)[C@@H](C)NC(=O)[C@@H](CCC(N)=O)NC(=O)[C@H](CC(C)C)N(C)C(=O)[C@H](C(C)C)NC(=O)CN(CCO)C(=O)CN(C)C1=O | 66 | – |
| C=C[C@H]1C[N@@]2CC[C@H]1C[C@@H]2[C@@H](O)c1ccnc2ccc(OC)cc12 [QUINIDINE] | – | inhibition at 20 min, 10 µM [2]: 97.5% |
| O=c1cc(-c2ccccc2)oc2c1ccc1ccccc12 [ALPHA-NAPHTHOFLAVONE] | – | inhibition at 20 min, 10 µM [3]: 97.1% |
| C/C=C/C[C@@H](C)[C@@H](O)[C@H]1C(=O)N[C@@H](CC)C(=O)N(C)CC(=O)N(C)[C@@H](CC(C)C)C(=O)N[C@@H](C(C)C)C(=O)N(C)[C@@H](CC(C)C)C(=O)N[C@@H](C)C(=O)N[C@H](C)C(=O)N(C)[C@@H](CC(C)C)C(=O)N(C)[C@@H](CC(C)C)C(=O)N(C)[C@@H](C(C)C)C(=O)N1C [CYCLOSPORINE] | 83 | IC50 [4]: 400 nM |
| CCC[C@@H]1NC(=O)[C@H](CC(C)C)N(C)C(=O)[C@H](C(C)C)N(C)C(=O)[C@H](CC(C)C)N(C)C(=O)[C@H](CC(C)C)N(C)C(=O)[C@@H](C)NC(=O)[C@@H](CCC(N)=O)NC(=O)[C@H](CC(C)C)N(C)C(=O)[C@H](C(C)C)NC(=O)[C@H](CC(C)C)N(C)C(=O)CN(C)C1=O | 57 | – |
| CCC[C@@H]1NC(=O)[C@H](CC(C)C)N(C)C(=O)[C@H](CC(C)C)N(C)C(=O)[C@H](CC(C)C)N(C)C(=O)[C@H](CC(C)C)N(C)C(=O)[C@@H](C)NC(=O)[C@@H](CCC(N)=O)NC(=O)[C@H](CC(C)C)N(C)C(=O)[C@H](C(C)C)NC(=O)CN(CC(C)C)C(=O)CN(C)C1=O | 85 | IC50 [4]: 420 nM |
| CCC[C@@H]1NC(=O)[C@H](CC(C)C)N(C)C(=O)[C@H](CC(C)C)N(C)C(=O)[C@H](CC(C)C)N(C)C(=O)CN(Cc2ccccc2)C(=O)[C@@H](C)NC(=O)[C@@H](CCC(N)=O)NC(=O)[C@H](CC(C)C)N(C)C(=O)[C@H](C(C)C)NC(=O)[C@H](CC(C)C)N(C)C(=O)CN(C)C1=O | 69 | – |
| CCC[C@@H]1NC(=O)[C@H](CC(C)C)N(C)C(=O)[C@H](CC(C)C)N(C)C(=O)[C@H](CC(C)C)N(C)C(=O)[C@H](CC(C)C)N(C)C(=O)[C@@H](C)NC(=O)[C@H](CCC(N)=O)NC(=O)[C@H](CC(C)C)N(C)C(=O)[C@H](C(C)C)NC(=O)CN(C)C(=O)CN(C)C1=O | 86 | IC50 [4]: 440 nM |
| Nc1ccc(S(=O)(=O)Nc2ccnn2-c2ccccc2)cc1 [SULFAPHENAZOLE] | – | inhibition at 20 min, 10 µM [5]: 94.4% |
| CCC[C@@H]1NC(=O)[C@H](CC(C)C)N(C)C(=O)[C@H](CC(C)C)N(C)C(=O)[C@H](CC(C)C)N(C)C(=O)CN(CCOC)C(=O)[C@@H](C)NC(=O)[C@@H](CCC(N)=O)NC(=O)[C@H](CC(C)C)N(C)C(=O)[C@H](C(C)C)NC(=O)[C@H](CC(C)C)N(C)C(=O)CN(C)C1=O | 72 | – |
| CCC[C@@H]1NC(=O)[C@H](CC(C)C)N(C)C(=O)[C@H](CC(C)C)N(C)C(=O)[C@H](CC(C)C)N(C)C(=O)CN(CCO)C(=O)[C@@H](C)NC(=O)[C@@H](CCC(N)=O)NC(=O)[C@H](CC(C)C)N(C)C(=O)[C@H](C(C)C)NC(=O)[C@H](CC(C)C)N(C)C(=O)CN(C)C1=O | 59 | – |
| CCC[C@@H]1NC(=O)[C@H](CC(C)C)N(C)C(=O)[C@H](CC(C)C)N(C)C(=O)CN(CCCCN)C(=O)[C@H](CC(C)C)N(C)C(=O)[C@@H](C)NC(=O)[C@@H](CCC(N)=O)NC(=O)[C@H](CC(C)C)N(C)C(=O)[C@H](C(C)C)NC(=O)[C@H](CC(C)C)N(C)C(=O)CN(C)C1=O | 57 | – |
| CCC[C@@H]1NC(=O)[C@H](CC(C)C)N(C)C(=O)[C@H](CC(C)C)N(C)C(=O)CN(C)C(=O)[C@H](CC(C)C)N(C)C(=O)[C@@H](C)NC(=O)[C@@H](CCC(N)=O)NC(=O)[C@H](CC(C)C)N(C)C(=O)[C@H](C(C)C)NC(=O)[C@H](CC(C)C)N(C)C(=O)CN(C)C1=O | 37 | – |
